# Laboratory results published in ChEMBL document CHEMBL1201862, “PubChem BioAssay data set” (2004).
#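 Five compound concentrations were applied to cells in 96-well plates for 48 hours; endpoints were derived by simple linear interpolation of the resulting dose-response curve. GI50 marks 50% less growth.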 Active and inactive are the calls of the source. No stated cut-off is given here; in the data, active = GI50 up to about 1.1 µM and inactive = higher.
# Tests used:
# Experiment in all cases: growth of human tumour cells (NCI), 48 h
# BT-549 = test system: BT-549
# SK-MEL-28 = test system: SK-MEL-28
# 786-0 = test system: 786-0
# SK-MEL-5 = test system: SK-MEL-5
# HT-29 = test system: HT-29
# Malme-3M = test system: Malme-3M
# EKVX = test system: EKVX
# MCF7 = test system: MCF7
# NCI/ADR-RES = test system: NCI/ADR-RES
# SNB-19 = test system: SNB-19
# HOP-92 = test system: HOP-92
# MDA-MB-231 = test system: MDA-MB-231
# SF-268 = test system: SF-268
# UO-31 = test system: UO-31
# SF-295 = test system: SF-295
# UACC-62 = test system: UACC-62
# SK-OV-3 = test system: SK-OV-3
# NCI-H226 = test system: NCI-H226
# NCI-H522 = test system: NCI-H522
SMILES,GI50 (BT-549),GI50 (SK-MEL-28),GI50 (786-0),GI50 (SK-MEL-5),GI50 (HT-29),GI50 (Malme-3M),GI50 (EKVX),GI50 (MCF7),GI50 (NCI/ADR-RES),GI50 (SNB-19),GI50 (HOP-92),GI50 (MDA-MB-231),GI50 (SF-268),GI50 (UO-31),GI50 (SF-295),GI50 (UACC-62),GI50 (SK-OV-3),GI50 (NCI-H226),GI50 (NCI-H522)
N#CC(c1ccccc1)N(CCc1ccccc1)C(=O)c1ccc(C(=O)N(CCc2ccccc2)C(C#N)c2ccccc2)cc1 (stereo unspecified),14.5 µM (inactive),22.8 µM (inactive),22.6 µM (inactive),13.5 µM (inactive),19 µM (inactive),19.3 µM (inactive),34.4 µM (inactive),30.3 µM (inactive),17.9 µM (inactive),30.5 µM (inactive),12.9 µM (inactive),24.6 µM (inactive),22 µM (inactive),19.4 µM (inactive),18.5 µM (inactive),15.5 µM (inactive),31.9 µM (inactive),17 µM (inactive),
C[Si](C)(C)OC1c2[nH]c3ccccc3c2CN2C(=O)CCC12 (stereo unspecified),> 100 µM (inactive),> 100 µM (inactive),> 100 µM (inactive),> 100 µM (inactive),> 100 µM (inactive),,> 100 µM (inactive),> 100 µM (inactive),> 100 µM (inactive),> 100 µM (inactive),> 100 µM (inactive),> 100 µM (inactive),> 100 µM (inactive),> 100 µM (inactive),,> 100 µM (inactive),> 100 µM (inactive),> 100 µM (inactive),> 100 µM (inactive)
COc1cc(/C=C/C(=O)c2ccc(NS(=O)(=O)c3cc([N+](=O)[O-])ccc3C)cc2)cc(OC)c1OC,4.27 µM (inactive),8.43 µM (inactive),2.74 µM (inactive),4.18 µM (inactive),4.38 µM (inactive),,5.36 µM (inactive),2.77 µM (inactive),8.41 µM (inactive),3.85 µM (inactive),2.98 µM (inactive),2.59 µM (inactive),,5.82 µM (inactive),4.61 µM (inactive),,4.01 µM (inactive),2.97 µM (inactive),
Sc1nnc(NNc2ccccc2)n1Nc1ccccc1,8.69 µM (inactive),> 100 µM (inactive),> 71 µM (inactive),0.488 µM (active),4.76 µM (inactive),,> 87.3 µM (inactive),0.508 µM (active),34.3 µM (inactive),> 75.9 µM (inactive),25.3 µM (inactive),44.8 µM (inactive),> 82.4 µM (inactive),,< 0.01 µM (active),0.0427 µM (active),> 100 µM (inactive),22.6 µM (inactive),42.5 µM (inactive)
O=[N+]([O-])c1cccc(-c2csc(N/N=C3\NC/C(=C/c4ccc5c(c4)OCO5)S3)n2)c1,25.1 µM (inactive),,38.4 µM (inactive),17.3 µM (inactive),22.4 µM (inactive),,9.02 µM (inactive),33.7 µM (inactive),19.6 µM (inactive),20.5 µM (inactive),16.1 µM (inactive),35.1 µM (inactive),23.3 µM (inactive),25.9 µM (inactive),35 µM (inactive),18.8 µM (inactive),26.8 µM (inactive),16.6 µM (inactive),18.2 µM (inactive)
O=c1[nH]c2ccccc2c2nc3ccccc3n12,83 µM (inactive),,81.8 µM (inactive),19.5 µM (inactive),49.5 µM (inactive),13.1 µM (inactive),3.89 µM (inactive),21.8 µM (inactive),81.1 µM (inactive),> 100 µM (inactive),13.9 µM (inactive),16.9 µM (inactive),53.7 µM (inactive),8.49 µM (inactive),62.4 µM (inactive),6.64 µM (inactive),14 µM (inactive),,7.21 µM (inactive)
